# Assay results published in the METLIN SMRT retention time set (Domingo-Almenara et al. 2019).
# Assay: gradient 5% acetonitrile 3 min, to 50% in 2 min, to 85% in 15 min, held 3 min, 100 µL/min
# Settings: column: Zorbax Extend-C18 2.1 x 50 mm; eluents: water / acetonitrile, 0.1% formic acid
# In short: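 In both positive and negative ionization mode, a quadrupole time-of-flight mass spectrometer coupled to HPLC analyzed pure standards run in mixtures of ~100 molecules. The Zorbax Extend-C18 column (2.1 × 50 mm, 1.8 μm) was operated at 100 μL/min with water and acetonitrile, each containing 0.1% formic acid. The dead volume was 40 μL and the dwell volume 900 μL. Retention time came from adduct peaks that were computationally picked and individually inspected by hand.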
row,RP-LC retention time [s],SMILES
1,638,COc1ccc(Nc2c(C(=O)N3CCCCCC3)cnc3nc(C)ccc23)cc1
2,847,COc1cc(NC(=O)C2(Cc3ccccc3)CCCCC(=O)N2)cc(OC)c1 (stereo unspecified)
3,1000,CCc1nc(-c2cc(S(=O)(=O)N3CCC(C(=O)Nc4ccc(OC)cc4)CC3)c(C)s2)no1
4,959,Cc1cc(C)c(CNC(=O)C2CCN(c3cnc(N4CCSCC4)nc3)CC2)c(C)c1
5,814,O=C(CCc1c[nH]c2ccccc12)N1CCN(C(=O)c2cc(-c3cccnc3)n[nH]2)CC1
6,857,Cc1ccc(C(=O)NCc2nn(C)c3ccccc23)c(C)c1
7,659,NS(=O)(=O)c1ccc(NC(=O)C2CCCN(c3ncnc4c3nc3n4CCCCC3)C2)cc1 (stereo unspecified)
8,677,COc1ccc(Cl)cc1S(=O)(=O)NC1CCc2nn(C)c(=O)n2CC1 (stereo unspecified)
9,1260,CC(C)c1ccc(S(=O)(=O)N2CCCC2c2nc(-c3ccc(F)cc3)no2)cc1 (stereo unspecified)
10,563,O=C(c1c(OCC2CC2)cc(=O)n2c1CCCCC2)N1CCN(c2ccccn2)CC1
11,1020,COc1cccc(N2CCN(Cc3nc(-c4ccc(N5CCC(C)CC5)nc4)no3)CC2)c1
12,1160,Cc1csc(-c2cc(S(=O)(=O)N3CCN(c4ccccc4)CC3)c(C)s2)n1
13,757,O=C(NCc1ccc(F)c(Cl)c1)C1CCN(c2cnc3nccnc3c2)CC1
14,860,O=C(Nc1ccc(F)c(Cl)c1)N1CCC(n2cnc3ccc(F)cc3c2=O)CC1
15,1010,CCOC(=O)c1sc(NC(=O)C2CCC2)nc1-c1ccccc1
16,584,Cc1nnc(N2CCCC(C(=O)N3CCN(c4ccccn4)CC3)C2)c2nn(-c3ccccc3)c(C)c12 (stereo unspecified)
17,675,Cc1c(C(=O)Nc2ccc(CC(=O)NC3CC3)cc2)cnn1-c1ccccc1
18,645,CCc1nnc(C2CN(C)CC23CCN(S(=O)(=O)c2cccc(Cl)c2)CC3)o1 (stereo unspecified)
19,934,O=C(NCc1ccccc1Cl)c1nnc(-c2ccc(S(=O)(=O)N3CCCC3)cc2)o1
20,847,Clc1ccc(-c2nc(N3CCCCCC3)c3ccccc3n2)cc1
21,638,CCc1nc2c(c(=O)n1CC(=O)Nc1ccccc1)CN(Cc1ccccc1)CC2
22,1320,CC1=NS(=O)(=O)N(Cc2ccccc2)C=C1C(=O)OCc1ccc(C(C)(C)C)cc1
23,1050,CCn1c(C(=O)N2CCN(c3cccc(C)c3)C(C)C2)cc2sccc21 (stereo unspecified)
24,605,c1ccc(N2CCN(Cc3csc4c3CCCC4)CC2)nc1
25,808,CCc1nn2c(CNC(=O)c3ccoc3)c(-c3ccccc3)nc2s1
26,838,CCc1ccccc1NC(=O)Cn1nc2nc(N3CCCC(C)C3)ccn2c1=O (stereo unspecified)
27,1030,COc1ccc(C2(C(=O)Nc3cc(-c4ccsc4)no3)CC2)cc1

# The next lines start with the compound.
row,SMILES,RP-LC retention time [s]
1,COc1ccc(OC)c2nc3c(C(=O)NCCN(C)C)cccc3nc12,595
2,COc1ccc(C2c3c(n(C)c4ccccc34)C(=O)N2CC(=O)NCc2ccco2)cc1 (stereo unspecified),924
3,CN1CCCn2nc(C3CCN(C(=O)c4cccc(C(F)(F)F)c4)CC3)cc2C1=O,718
4,COc1cc(OC)c(NC(=O)NC2CCN(c3ccc(F)c(C)c3)C2=O)cc1Cl (stereo unspecified),888
5,CC(C)n1nccc1-c1nnc(NC(=O)C2CC(=O)N(c3ccc(F)cc3)C2)o1 (stereo unspecified),685
6,CS(=O)(=O)N(C1CCOCC1)C1CN(C(=O)c2n[nH]c3ccccc23)C1,663
7,CCOc1cccc2c1OC1(C)CC2NC(=O)N1c1cccc(C(=O)NCc2ccccn2)c1 (stereo unspecified),607
8,CCOc1ccc(CNC(=O)Cc2csc3nc(-c4ccc(C)c(C)c4)cn23)cc1,847
9,CCn1cc(-c2ccc(C)cc2)cc1C(=O)NCC1CCCO1 (stereo unspecified),614
10,COc1ccc(-n2c(=O)n(C)c(=O)c3cc(C(=O)Nc4ccc(C)c(F)c4)cnc32)cc1,965
11,CCSC1=NCCN1C(=O)C(C)(C)Oc1ccc(Cl)cc1,770
12,CNS(=O)(=O)c1cccnc1Nc1cccc(C(C)C)c1,1080
13,Clc1ccc2nnc(Cc3ccccc3)n2n1,739
14,CSc1ncccc1C(=O)NCC(O)c1ccsc1 (stereo unspecified),626
15,CCNC(=O)c1nccnc1NC(=O)c1ccccc1,743
16,Cc1ccc(S(=O)(=O)N2C[C@@H](F)C[C@H]2C(=O)N2CCOCC2)cc1F,710
17,CCOCCCNC(=O)[C@@H]1[C@H](c2cc(OC)c(OC)c(OC)c2)c2cc3c(cc2[C@H](O)[C@H]1CO)OCO3,653
18,CNC(=O)[C@@H]1C[C@H](Oc2ccccc2)CN1C(=O)COc1ccccc1,603
19,O=C(CN1CC=C(c2cnn(-c3ccccc3)c2)CC1)Nc1ccc2c(c1)OCCO2,675
20,Cc1ccc(-c2nc3ccccn3c2Nc2ccc3c(c2)OCO3)cc1,694

row,SMILES,RP-LC retention time [s]
1,O=C(c1ccc2c(c1)OCO2)N1CC2CN(S(=O)(=O)c3ccc(F)cc3)CC(C1)O2,774
2,COCc1nc(CCNC(=O)C2CCC2)no1,609
3,CCn1nccc1-c1cccc(-c2noc(-c3ccc(OC)cc3)n2)c1,1210
4,COc1ccc(CNC(=O)c2cnc(OC)nc2)cc1,673
5,COc1ccc2c(c1)[C@]13CCCC[C@@H]1[C@H](C2)N(C)CC3,732
6,Cc1ccccc1OCc1nc(CCN(C)C(=O)c2ccc(Br)o2)no1,951
7,CCCC(=O)N1CCC(C(=O)Nc2ccc(OCC)cc2)CC1,718
8,O=S(=O)(NCCc1ccccc1)c1ccccc1-c1nc(-c2ccccc2)no1,1210
9,O=C(Cn1c(=O)n(C2CCCCC2)c2ncccc21)NCc1cccnc1,603
10,COCCNC(=O)C1CCN(C(=O)c2cc3ccsc3n2Cc2ccc(Cl)cc2)CC1,843
11,COc1ccccc1CNc1ccc(-c2nc(-c3cccc(F)c3)no2)cn1,1230
12,CCCn1ncc(N2CCC(C(=O)N3CCN(C(C)C)CC3)CC2)cc1=O,566
13,CCOc1ccc(CNS(=O)(=O)c2cc(-c3cnn4c(C)cc(C)nc34)ccc2C)cc1OCC,1040
14,COC(=O)c1ncn2c1C(=O)N(c1ccc(C)cc1)C(C)(C(=O)NCc1ccc(C)cc1)C2 (stereo unspecified),747
15,CCOc1ccc(-n2c(=O)c3sccc3n(Cc3nc(-c4cccc(OCC)c4)no3)c2=O)cc1,1080
16,CCCCN1C(=O)C(C)(C(=O)Nc2ccc(OCC)cc2)Oc2cccnc21 (stereo unspecified),1060
17,COc1cc2nc(C(=O)N3CCCCC3)cc(Nc3cccc(SC)c3)c2cc1OC,723
18,Cc1cc(-c2cc(S(=O)(=O)NCCCOC(C)C)c(C)s2)n[nH]1,770
19,CCOc1ccc(CNC(=O)c2ccc3c(c2)NC(=O)C2CCCCN32)cc1OC (stereo unspecified),747
